Key:
Experiment in all cases: Post-emergence test, weed control effect
Assay type in all cases: in vivo
Settings in all cases: after 3 weeks
Veronica polita = system: Veronica polita
Summary of the method: (§1)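 Activity is expressed as a level from 0 (no effect) to 10 (plant dead), each step matching a further 10% fresh-weight inhibition, assessed 3 weeks post-treatment. Treatment: spray at 2-3 leaf stage of pot-grown plants, compound in acetone, Tween-80 and water with 80% vegetable oil methyl ester synergist at 1500 g/ha.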

Chenopodiaceae = system: Chenopodiaceae
Summary of the method: as §1

Rorippa indica = system: Rorippa indica
Summary of the method: as §1

Amaranthus retroflexus = system: Amaranthus retroflexus
Summary of the method: as §1

Oc1cc(C(F)(F)F)nnc1-c1c(F)cc(F)cc1F [Compound 52]
10: weed control effect (activity level), Veronica polita (Veronica polita; dose 1000 g/ha) | weed control effect (activity level), Chenopodiaceae (Chenopodiaceae; dose 1000 g/ha) | weed control effect (activity level), Rorippa indica (Rorippa indica; dose 1000 g/ha) | weed control effect (activity level), Amaranthus retroflexus (Amaranthus retroflexus; dose 1000 g/ha)

Oc1cc(C(F)(F)F)nnc1-c1cc(F)c(F)c(F)c1 [Compound 53]
10: weed control effect (activity level), Veronica polita (Veronica polita; dose 1000 g/ha) | weed control effect (activity level), Chenopodiaceae (Chenopodiaceae; dose 1000 g/ha) | weed control effect (activity level), Rorippa indica (Rorippa indica; dose 1000 g/ha) | weed control effect (activity level), Amaranthus retroflexus (Amaranthus retroflexus; dose 1000 g/ha)

Oc1cc(C(F)(F)F)nnc1-c1c(F)ccc(F)c1F [Compound 54]
10: weed control effect (activity level), Veronica polita (Veronica polita; dose 1000 g/ha) | weed control effect (activity level), Chenopodiaceae (Chenopodiaceae; dose 1000 g/ha) | weed control effect (activity level), Rorippa indica (Rorippa indica; dose 1000 g/ha) | weed control effect (activity level), Amaranthus retroflexus (Amaranthus retroflexus; dose 1000 g/ha)

Oc1cc(C(F)(F)F)nnc1-c1c(F)c(F)c(F)c(F)c1F [Compound 55]
10: weed control effect (activity level), Veronica polita (Veronica polita; dose 1000 g/ha) | weed control effect (activity level), Chenopodiaceae (Chenopodiaceae; dose 1000 g/ha) | weed control effect (activity level), Rorippa indica (Rorippa indica; dose 1000 g/ha) | weed control effect (activity level), Amaranthus retroflexus (Amaranthus retroflexus; dose 1000 g/ha)

Cc1ccc(-c2nnc(C(F)(F)F)cc2O)cc1F [Compound 56]
10: weed control effect (activity level), Veronica polita (Veronica polita; dose 1000 g/ha) | weed control effect (activity level), Chenopodiaceae (Chenopodiaceae; dose 1000 g/ha) | weed control effect (activity level), Rorippa indica (Rorippa indica; dose 1000 g/ha) | weed control effect (activity level), Amaranthus retroflexus (Amaranthus retroflexus; dose 1000 g/ha)

Cc1ccc(F)c(-c2nnc(C(F)(F)F)cc2O)c1 [Compound 57]
10: weed control effect (activity level), Veronica polita (Veronica polita; dose 1000 g/ha) | weed control effect (activity level), Chenopodiaceae (Chenopodiaceae; dose 1000 g/ha) | weed control effect (activity level), Rorippa indica (Rorippa indica; dose 1000 g/ha) | weed control effect (activity level), Amaranthus retroflexus (Amaranthus retroflexus; dose 1000 g/ha)

Cc1cc(F)ccc1-c1nnc(C(F)(F)F)cc1O [Compound 58]
10: weed control effect (activity level), Veronica polita (Veronica polita; dose 1000 g/ha) | weed control effect (activity level), Chenopodiaceae (Chenopodiaceae; dose 1000 g/ha) | weed control effect (activity level), Rorippa indica (Rorippa indica; dose 1000 g/ha) | weed control effect (activity level), Amaranthus retroflexus (Amaranthus retroflexus; dose 1000 g/ha)

Cc1ccc(-c2nnc(C(F)(F)F)cc2O)c(F)c1 [Compound 59]
10: weed control effect (activity level), Veronica polita (Veronica polita; dose 1000 g/ha) | weed control effect (activity level), Chenopodiaceae (Chenopodiaceae; dose 1000 g/ha) | weed control effect (activity level), Rorippa indica (Rorippa indica; dose 1000 g/ha) | weed control effect (activity level), Amaranthus retroflexus (Amaranthus retroflexus; dose 1000 g/ha)

COc1ccc(F)cc1-c1nnc(C(F)(F)F)cc1O [Compound 60]
10: weed control effect (activity level), Veronica polita (Veronica polita; dose 1000 g/ha) | weed control effect (activity level), Chenopodiaceae (Chenopodiaceae; dose 1000 g/ha) | weed control effect (activity level), Rorippa indica (Rorippa indica; dose 1000 g/ha) | weed control effect (activity level), Amaranthus retroflexus (Amaranthus retroflexus; dose 1000 g/ha)

O=[N+]([O-])c1ccc(F)c(-c2nnc(C(F)(F)F)cc2O)c1 [Compound 61]
10: weed control effect (activity level), Veronica polita (Veronica polita; dose 1000 g/ha) | weed control effect (activity level), Chenopodiaceae (Chenopodiaceae; dose 1000 g/ha) | weed control effect (activity level), Rorippa indica (Rorippa indica; dose 1000 g/ha) | weed control effect (activity level), Amaranthus retroflexus (Amaranthus retroflexus; dose 1000 g/ha)

COc1c(C)ccc(F)c1-c1nnc(C(F)(F)F)cc1O [Compound 62]
10: weed control effect (activity level), Veronica polita (Veronica polita; dose 1000 g/ha) | weed control effect (activity level), Chenopodiaceae (Chenopodiaceae; dose 1000 g/ha) | weed control effect (activity level), Rorippa indica (Rorippa indica; dose 1000 g/ha) | weed control effect (activity level), Amaranthus retroflexus (Amaranthus retroflexus; dose 1000 g/ha)

O=Cc1c(F)cccc1-c1nnc(C(F)(F)F)cc1O [Compound 63]
10: weed control effect (activity level), Veronica polita (Veronica polita; dose 1000 g/ha) | weed control effect (activity level), Chenopodiaceae (Chenopodiaceae; dose 1000 g/ha) | weed control effect (activity level), Rorippa indica (Rorippa indica; dose 1000 g/ha) | weed control effect (activity level), Amaranthus retroflexus (Amaranthus retroflexus; dose 1000 g/ha)

O=Cc1ccc(-c2nnc(C(F)(F)F)cc2O)c(F)c1 [Compound 64]
10: weed control effect (activity level), Veronica polita (Veronica polita; dose 1000 g/ha) | weed control effect (activity level), Chenopodiaceae (Chenopodiaceae; dose 1000 g/ha) | weed control effect (activity level), Rorippa indica (Rorippa indica; dose 1000 g/ha) | weed control effect (activity level), Amaranthus retroflexus (Amaranthus retroflexus; dose 1000 g/ha)

O=Cc1ccc(-c2nnc(C(F)(F)F)cc2O)cc1F [Compound 65]
10: weed control effect (activity level), Veronica polita (Veronica polita; dose 1000 g/ha) | weed control effect (activity level), Chenopodiaceae (Chenopodiaceae; dose 1000 g/ha) | weed control effect (activity level), Rorippa indica (Rorippa indica; dose 1000 g/ha) | weed control effect (activity level), Amaranthus retroflexus (Amaranthus retroflexus; dose 1000 g/ha)

O=[N+]([O-])c1cc(-c2nnc(C(F)(F)F)cc2O)ccc1F [Compound 66]
10: weed control effect (activity level), Veronica polita (Veronica polita; dose 1000 g/ha) | weed control effect (activity level), Chenopodiaceae (Chenopodiaceae; dose 1000 g/ha) | weed control effect (activity level), Rorippa indica (Rorippa indica; dose 1000 g/ha) | weed control effect (activity level), Amaranthus retroflexus (Amaranthus retroflexus; dose 1000 g/ha)

O=Cc1ccc(F)cc1-c1nnc(C(F)(F)F)cc1O [Compound 67]
10: weed control effect (activity level), Veronica polita (Veronica polita; dose 1000 g/ha) | weed control effect (activity level), Chenopodiaceae (Chenopodiaceae; dose 1000 g/ha) | weed control effect (activity level), Rorippa indica (Rorippa indica; dose 1000 g/ha) | weed control effect (activity level), Amaranthus retroflexus (Amaranthus retroflexus; dose 1000 g/ha)

COc1cccc(-c2nnc(C(F)(F)F)cc2O)c1F [Compound 68]
10: weed control effect (activity level), Veronica polita (Veronica polita; dose 1000 g/ha) | weed control effect (activity level), Chenopodiaceae (Chenopodiaceae; dose 1000 g/ha) | weed control effect (activity level), Rorippa indica (Rorippa indica; dose 1000 g/ha) | weed control effect (activity level), Amaranthus retroflexus (Amaranthus retroflexus; dose 1000 g/ha)

O=[N+]([O-])c1ccc(Cl)c(-c2nnc(C(F)(F)F)cc2O)c1 [Compound 69]
10: weed control effect (activity level), Veronica polita (Veronica polita; dose 1000 g/ha) | weed control effect (activity level), Chenopodiaceae (Chenopodiaceae; dose 1000 g/ha) | weed control effect (activity level), Rorippa indica (Rorippa indica; dose 1000 g/ha) | weed control effect (activity level), Amaranthus retroflexus (Amaranthus retroflexus; dose 1000 g/ha)

COc1ccc(Cl)c(-c2nnc(C(F)(F)F)cc2O)c1 [Compound 70]
10: weed control effect (activity level), Veronica polita (Veronica polita; dose 1000 g/ha) | weed control effect (activity level), Chenopodiaceae (Chenopodiaceae; dose 1000 g/ha) | weed control effect (activity level), Rorippa indica (Rorippa indica; dose 1000 g/ha) | weed control effect (activity level), Amaranthus retroflexus (Amaranthus retroflexus; dose 1000 g/ha)

Cc1cc(Cl)ccc1-c1nnc(C(F)(F)F)cc1O [Compound 71]
10: weed control effect (activity level), Veronica polita (Veronica polita; dose 1000 g/ha) | weed control effect (activity level), Chenopodiaceae (Chenopodiaceae; dose 1000 g/ha) | weed control effect (activity level), Rorippa indica (Rorippa indica; dose 1000 g/ha) | weed control effect (activity level), Amaranthus retroflexus (Amaranthus retroflexus; dose 1000 g/ha)

Cc1cc(-c2nnc(C(F)(F)F)cc2O)ccc1Cl [Compound 72]
10: weed control effect (activity level), Veronica polita (Veronica polita; dose 1000 g/ha) | weed control effect (activity level), Chenopodiaceae (Chenopodiaceae; dose 1000 g/ha) | weed control effect (activity level), Rorippa indica (Rorippa indica; dose 1000 g/ha) | weed control effect (activity level), Amaranthus retroflexus (Amaranthus retroflexus; dose 1000 g/ha)

Cc1ccc(-c2nnc(C(F)(F)F)cc2O)c(C)c1 [Compound 77]
10: weed control effect (activity level), Veronica polita (Veronica polita; dose 2000 g/ha) | weed control effect (activity level), Chenopodiaceae (Chenopodiaceae; dose 2000 g/ha) | weed control effect (activity level), Rorippa indica (Rorippa indica; dose 2000 g/ha) | weed control effect (activity level), Amaranthus retroflexus (Amaranthus retroflexus; dose 2000 g/ha)

CCOc1ccc(F)c(-c2nnc(C(F)(F)F)cc2O)c1F [Compound 81]
10: weed control effect (activity level), Veronica polita (Veronica polita; dose 1000 g/ha) | weed control effect (activity level), Chenopodiaceae (Chenopodiaceae; dose 1000 g/ha) | weed control effect (activity level), Rorippa indica (Rorippa indica; dose 1000 g/ha) | weed control effect (activity level), Amaranthus retroflexus (Amaranthus retroflexus; dose 1000 g/ha)

Cc1ccc(Cl)c(-c2nnc(C(F)(F)F)cc2O)c1F [Compound 82]
10: weed control effect (activity level), Veronica polita (Veronica polita; dose 1000 g/ha) | weed control effect (activity level), Chenopodiaceae (Chenopodiaceae; dose 1000 g/ha) | weed control effect (activity level), Rorippa indica (Rorippa indica; dose 1000 g/ha) | weed control effect (activity level), Amaranthus retroflexus (Amaranthus retroflexus; dose 1000 g/ha)

CCCOc1ccc(-c2nnc(C(F)(F)F)cc2O)cc1 [Compound 83]
10: weed control effect (activity level), Veronica polita (Veronica polita; dose 1000 g/ha) | weed control effect (activity level), Chenopodiaceae (Chenopodiaceae; dose 1000 g/ha) | weed control effect (activity level), Rorippa indica (Rorippa indica; dose 1000 g/ha) | weed control effect (activity level), Amaranthus retroflexus (Amaranthus retroflexus; dose 1000 g/ha)

Oc1cc(C(F)(F)F)nnc1-c1cccc(C(F)(F)F)c1 [Compound 92]
10: weed control effect (activity level), Veronica polita (Veronica polita; dose 1000 g/ha) | weed control effect (activity level), Chenopodiaceae (Chenopodiaceae; dose 1000 g/ha) | weed control effect (activity level), Rorippa indica (Rorippa indica; dose 1000 g/ha) | weed control effect (activity level), Amaranthus retroflexus (Amaranthus retroflexus; dose 1000 g/ha)

COc1ccc(-c2nnc(C(F)(F)F)cc2O)cc1 [Compound 93]
10: weed control effect (activity level), Veronica polita (Veronica polita; dose 1000 g/ha) | weed control effect (activity level), Chenopodiaceae (Chenopodiaceae; dose 1000 g/ha) | weed control effect (activity level), Rorippa indica (Rorippa indica; dose 1000 g/ha) | weed control effect (activity level), Amaranthus retroflexus (Amaranthus retroflexus; dose 1000 g/ha)

COc1ccccc1-c1nnc(C(F)(F)F)cc1O [Compound 94]
10: weed control effect (activity level), Veronica polita (Veronica polita; dose 1000 g/ha) | weed control effect (activity level), Chenopodiaceae (Chenopodiaceae; dose 1000 g/ha) | weed control effect (activity level), Rorippa indica (Rorippa indica; dose 1000 g/ha) | weed control effect (activity level), Amaranthus retroflexus (Amaranthus retroflexus; dose 1000 g/ha)

CSc1cccc(-c2nnc(C(F)(F)F)cc2O)c1 [Compound 95]
10: weed control effect (activity level), Veronica polita (Veronica polita; dose 1000 g/ha) | weed control effect (activity level), Chenopodiaceae (Chenopodiaceae; dose 1000 g/ha) | weed control effect (activity level), Rorippa indica (Rorippa indica; dose 1000 g/ha) | weed control effect (activity level), Amaranthus retroflexus (Amaranthus retroflexus; dose 1000 g/ha)

CC(C)Sc1ccc(-c2nnc(C(F)(F)F)cc2O)cc1 [Compound 96]
10: weed control effect (activity level), Veronica polita (Veronica polita; dose 1000 g/ha) | weed control effect (activity level), Chenopodiaceae (Chenopodiaceae; dose 1000 g/ha) | weed control effect (activity level), Rorippa indica (Rorippa indica; dose 1000 g/ha) | weed control effect (activity level), Amaranthus retroflexus (Amaranthus retroflexus; dose 1000 g/ha)

CN(C)c1ccc(-c2nnc(C(F)(F)F)cc2O)cc1 [Compound 97]
10: weed control effect (activity level), Veronica polita (Veronica polita; dose 1000 g/ha) | weed control effect (activity level), Chenopodiaceae (Chenopodiaceae; dose 1000 g/ha) | weed control effect (activity level), Rorippa indica (Rorippa indica; dose 1000 g/ha) | weed control effect (activity level), Amaranthus retroflexus (Amaranthus retroflexus; dose 1000 g/ha)
